# Experiments:
# Type in all cases: physicochemical
# [1] = Hygroscopicity study by DVS method at 25° C.; conditions: for humidity at which the crystal form begins to absorb water / water absorbed at 90% RH: 25° C.; for crystal form after water absorption / DVS (XRPD): XRPD before and after DVS
# Procedure: The hygroscopicity of crystal forms A, C and E is evaluated by DVS method at 25° C. Crystal form A begins to absorb water at 70% RH and absorbs 8.4% of water at 90% RH. […] Crystal form E begins to absorb water at 80% RH and absorbs 8.5% of water at 90% RH. […] Therefore, crystal form C is selected for further stability study.
# [2] = Crystal form conversion on storage or heating (XRPD/DSC)
# Description: The innovator of this invention set up 103 pleiomorphic screening tests using 7 methods, and obtained 7 crystal forms therefrom, i.e., crystal forms A, B, C, E, F, J and K. Among those, crystal forms B, F and J are instable at common temperature while crystal form K is a crystal form of troxacitabine acetic acid solvate or acetate, crystal form C is a crystal form of troxacitabine monohydrate, and crystal forms A and E are the crystal forms of troxacitabine itself (anhydrous substance).
# Transfer 201.3 mg of the final product obtained in the embodiment 1 to a 5-ml flasket, add 0.8 mL of water to dissolve and volatilize in a fume hood with the top open for 3 days. Transfer into a vacuum drying oven (<−100 KPa) and volatilize with the top open for 1 day. The resulted crystal form is called crystal form C and its superficial characteristics are obtained using x-ray powder diffraction (XRPD), thermogravimetric analysis (TGA) and differential scanning calorimetry (DSC).
# Transfer 199.8 mg of the final product obtained in the embodiment 1 to a 5-ml flasket, add 4.0 mL of methanol:acetone=1:9 (v/v), and mix the suspension for 3 days. Centrifugate for 3 min at a rate of 10000 rpm, precipitate and vacuum dry for 1 h. The resulted crystal form is called crystal form E and its superficial characteristics are obtained using x-ray powder diffraction (XRPD) and differential scanning calorimetry (DSC). […] (the first endothermic peak at a starting temperature of 68.3° C. is the dehydration peak of crystal form C), the second endothermic peak disappears from DSC spectrum when heated to 160° C., that is, the second endothermic peak at a starting temperature of 146.0° C. is the crystal form conversion peak of crystal form A from crystal form E.)
# [3] = Stability study of crystal form C (XRPD, TGA, DSC, HPLC)
# Procedure: Crystal form C is evaluated for its physical-chemical stability when placed at 80° C. for 24 h (with the top closed) as well as at 40° C./75% RH and 25° C./60% RH for 1 week (with the top open). The chemical and physical stability of the samples are tested by XRPD, TGA, DSC and HPLC.
# [4] = 1 week, 25° C./60% RH, top open
# [5] = 1 week, 40° C./75% RH, top open
humidity at which the crystal form begins to absorb water ([1]; DVS) [% RH],water absorbed at 90% RH ([1]; DVS) [%],crystal form after water absorption / DVS (XRPD) [1],"hygroscopicity ([1]; DVS, 25° C./80% RH) [%]",relative stability among crystal forms ([1]; room temperature and room humidity),"TGA weight loss (heated to 100° C.) ([3]; 0 h, NA)","HPLC purity ([3]; 0 h, NA) [area %]","TGA weight loss (heated to 100° C.) [3, 4]","HPLC purity [3, 4] [area %]","TGA weight loss (heated to 100° C.) [3, 5]","HPLC purity [3, 5] [area %]","physical stability ([3]; 40° C./75% RH and 25° C./60% RH, 1 week)","chemical stability ([3]; 80° C. 24 h, 40° C./75% RH and 25° C./60% RH 1 week, chemical impurity analysis)","TGA weight loss (heated to 100° C.) ([3]; 24 h, 80° C., top closed)","HPLC purity ([3]; 24 h, 80° C., top closed) [area %]",crystal form change on storage ([2]; 1-month storage),Structure (SMILES),"crystal form change on heating ([2]; heated to 160° C., XRPD)","crystal form change on storage ([2]; stored for 3 months in air, XRPD)","crystal form change on heating ([2]; heated to 100° C., XRPD)"
80,8.5,begins to convert into crystal form C,–,–,–,–,–,–,–,–,–,–,–,–,–,Nc1ccn(C2CO[C@H](CO)O2)c(=O)n1 (some centres unmarked) [crystal form E],conversion of crystal form E into crystal form A,has a tendency to convert into crystal form C,–
–,–,remain the same in crystal form,0.14,most stable crystal form,8.0,100.0,8.2,100.0,7.9,100.0,physically stable,chemically stable,0.4,100.0,–,Nc1ccn(C2CO[C@H](CO)O2)c(=O)n1 (some centres unmarked) [crystal form C],–,–,conversion of crystal form C into crystal form A
70,8.4,begins to convert into crystal form C,–,–,–,–,–,–,–,–,–,–,–,–,partially convert into crystal form C,Nc1ccn(C2CO[C@H](CO)O2)c(=O)n1 (some centres unmarked) [crystal form A],–,–,–
